This is an account of results in ChEMBL document CHEMBL5532646, “Discovery of 4-(N-dithiobenzyl piperazine)-1,8-naphthalimide as a potent multi-target antitumor agent with good efficacy, limited toxicity, and low resistance” (Eur J Med Chem, 2024).

Assay type in all cases: functional, cell-based
One experiment has as its system SK-OV-3. Description: Antiproliferative activity against human SK-OV-3 cells incubated for 48 hrs by MTT assay. The settings on record: SK-OV-3, 48 h.
For the next experiment, the system named is T-24. Description: Antiproliferative activity against human T24 cells incubated for 48 hrs by MTT assay. The settings on record: T-24, 48 h. (Tetrazolium assays rely on reduction of a dye to a coloured formazan, in cell work by metabolically active cells.)
A further experiment has as its system MGC-803. Briefly: Antiproliferative activity against human MGC-803 cells incubated for 48 hrs by MTT assay. The settings on record: MGC-803, 48 h.
In another experiment the test system is HepG2. Description: Antiproliferative activity against human HepG2 cells incubated for 48 hrs by MTT assay. The settings on record: HepG2, 48 h.

For orientation: IC50 means the concentration that gives 50% inhibition. High values mean lower potency, low ones higher potency. As for `O=C(c1ccccc1)N1CCN(c2ccc3c4c(cccc24)C(=O)N(CCO)C3=O)CC1`, the 50% inhibitory concentration (IC50) with SK-OV-3 is 16.4 µM; in the experiment with T-24 it was 20.4 µM; in the experiment on MGC-803, 19.5 µM; with HepG2, 17.4 µM.
Consider `O=C1c2cccc3c(N4CCN(C(=S)SCc5ccccc5)CC4)ccc(c23)C(=O)N1CCO`, for which the IC50 turned out to be 14.3 µM in the experiment with SK-OV-3, 16.4 µM with T-24, 18.5 µM in the experiment on MGC-803 and 16.8 µM with HepG2.
For `O=C(c1ccccc1)N1CCN(c2ccc3c4c(cccc24)C(=O)N(Nc2ccccn2)C3=O)CC1` the same measures were 29.5 µM, 32.4 µM, 35.3 µM and 38.5 µM.
For `CC(C)(C)OC(=O)N1CCN(c2ccc3c4c(cccc24)C(=O)N(CCc2ccc(O)c(O)c2)C3=O)CC1` the same measures were 26.4 µM, 25.1 µM, 32.4 µM and 30.5 µM.
In the case of `CNCCN1C(=O)c2cccc3c(N4CCN(C(=O)OC(C)(C)C)CC4)ccc(c23)C1=O`, the IC50 in the experiment with SK-OV-3 is 5.42 µM; in the experiment on T-24, 3.88 µM; in the experiment with MGC-803, 8.69 µM; in the experiment with HepG2 it was 7.48 µM.
For `CC(C)(C)OC(=O)N1CCN(c2ccc3c4c(cccc24)C(=O)N(c2nc4ccccc4[nH]2)C3=O)CC1` the same measures were over 50 µM, over 50 µM, over 50 µM and over 50 µM.
For `CC(C)(C)OC(=O)N1CCN(c2ccc3c4c(cccc24)C(=O)N(Nc2ccccn2)C3=O)CC1` the same measures were 17.8 µM, 12.4 µM, 16.5 µM and 15.3 µM.
As for `O=C(c1ccccc1)N1CCN(c2ccc3c4c(cccc24)C(=O)N(CCc2ccc(O)c(O)c2)C3=O)CC1`, the 50% inhibitory concentration (IC50) in the experiment on SK-OV-3 turned out to be 21.4 µM; in the experiment on T-24, 26.5 µM; in the experiment on MGC-803, 25.8 µM; in the experiment with HepG2, 28.5 µM.
On to `CN(C)CCN1C(=O)c2cccc3c(N4CCN(C(=O)OC(C)(C)C)CC4)ccc(c23)C1=O`, for which the IC50 with SK-OV-3 turned out to be 10.2 µM; in the experiment with T-24 it was 6.91 µM; in the experiment on MGC-803, 10.9 µM; with HepG2, 11.4 µM.
For `O=C(c1ccccc1)N1CCN(c2ccc3c4c(cccc24)C(=O)N(Cc2ccccc2)C3=O)CC1` the same measures were 22.4 µM, 17.7 µM, 23.5 µM and 26.8 µM.
For `CC(C)(C)OC(=O)N1CCN(c2ccc3c4c(cccc24)C(=O)N(CCO)C3=O)CC1` the same measures were 9.13 µM, 7.41 µM, 8.81 µM and 7.62 µM.
On to `CC(C)(C)OC(=O)N1CCN(c2ccc3c4c(cccc24)C(=O)N(Cc2ccc(Cl)cc2)C3=O)CC1`, for which the 50% inhibitory concentration (IC50) in the experiment on SK-OV-3 was 22.6 µM; with T-24, 21.3 µM; in the experiment on MGC-803, 25.3 µM; in the experiment on HepG2, 23.2 µM.
For the molecule `O=c1[nH]cc(F)c(=O)[nH]1` [FLUOROURACIL], the half-maximal inhibitory concentration (IC50) in the experiment with T-24 amounted to 40.1 µM; in the experiment with HepG2 it was 25.5 µM.
`CNCCCN1C(=O)c2cccc3c(N4CCN(C(=O)OC(C)(C)C)CC4)ccc(c23)C1=O`: the concentration for half-maximal inhibition (IC50) was determined as 13.1 µM with SK-OV-3, 8.45 µM in the experiment on T-24, 17.4 µM with MGC-803 and 9.75 µM in the experiment with HepG2.
For `O=C1c2cccc3c(N4CCN(C(=S)SCc5ccccc5)CC4)ccc(c23)C(=O)N1CCc1ccc(O)c(O)c1` the same measures were 35 µM, 31.2 µM, 34.7 µM and 31.1 µM.
For `CC(C)(C)OC(=O)N1CCN(c2ccc3c4c(cccc24)C(=O)N(CCc2ccc4c(c2)OCO4)C3=O)CC1` the same measures were 4.16 µM, 3.69 µM, 5.78 µM and 4.31 µM.
Consider `CCCCN1C(=O)c2cccc3c(N4CCN(C(=S)SCc5ccccc5)CC4)ccc(c23)C1=O`, for which the IC50 in the experiment on SK-OV-3 was 25.3 µM; with T-24, 22.6 µM; with MGC-803, 26.1 µM; in the experiment with HepG2, 29.7 µM.
With `O=C(c1ccccc1)N1CCN(c2ccc3c4c(cccc24)C(=O)N(Nc2ccccc2)C3=O)CC1`, the IC50 in the experiment with SK-OV-3 was found to be 23.3 µM; in the experiment with T-24 it was 19.3 µM; in the experiment on MGC-803, 26.4 µM; in the experiment with HepG2 it was 21.5 µM.
For `O=C(c1ccccc1)N1CCN(c2ccc3c4c(cccc24)C(=O)N(Nc2nc4ccccc4s2)C3=O)CC1` the same measures were 19.4 µM, 24.1 µM, 27.5 µM and 22.4 µM.
Regarding `O=C(c1ccccc1)N1CCN(c2ccc3c4c(cccc24)C(=O)N(CCc2ccc4c(c2)OCO4)C3=O)CC1`, the IC50 in the experiment with SK-OV-3 was found to be 35.2 µM; with T-24, 24.4 µM; in the experiment with MGC-803, 21.6 µM; in the experiment on HepG2 it was 31.5 µM.
For `CC(C)(C)OC(=O)N1CCN(c2ccc3c4c(cccc24)C(=O)N(Cc2ccccc2)C3=O)CC1` the same measures were over 50 µM, over 50 µM, over 50 µM and over 50 µM.
For `CCCCN1C(=O)c2cccc3c(N4CCN(C(=O)OC(C)(C)C)CC4)ccc(c23)C1=O` the same measures were over 50 µM, over 50 µM, over 50 µM and over 50 µM.
For `CC(C)(C)OC(=O)N1CCN(c2ccc3c4c(cccc24)C(=O)N(Nc2nc4ccccc4s2)C3=O)CC1` the same measures were 23.5 µM, 20.3 µM, 19.5 µM and 22.4 µM.
As for `O=C1c2cccc3c(N4CCN(C(=S)SCc5ccccc5)CC4)ccc(c23)C(=O)N1Cc1ccc(Cl)cc1`, the IC50 with SK-OV-3 came to 28.8 µM; in the experiment on T-24 it was 21.1 µM; in the experiment with MGC-803 it was 20.5 µM; in the experiment on HepG2, 25.3 µM.
For `O=C1c2cccc3c(N4CCN(C(=S)SCc5ccccc5)CC4)ccc(c23)C(=O)N1Nc1ccccc1` the same measures were 30.8 µM, 22.4 µM, 19.4 µM and 28.4 µM.
Regarding `CNCCCN1C(=O)c2cccc3c(N4CCN(C(=O)c5ccccc5)CC4)ccc(c23)C1=O`, the half-inhibitory concentration (IC50) with SK-OV-3 came out at 6.06 µM; with T-24, 6.25 µM; in the experiment on MGC-803, 8.09 µM; in the experiment with HepG2 it was 4.41 µM.
For `CCCCN1C(=O)c2cccc3c(N4CCN(C(=O)c5ccccc5)CC4)ccc(c23)C1=O` the same measures were 15.4 µM, 10.4 µM, 11.2 µM and 14.3 µM.
Regarding `O=C1c2cccc3c(N4CCN(C(=S)SCc5ccccc5)CC4)ccc(c23)C(=O)N1Nc1nc2ccccc2s1`, the IC50 in the experiment on SK-OV-3 was 24.6 µM; in the experiment with T-24, 20.4 µM; in the experiment on MGC-803 it was 18.5 µM; with HepG2 it was 23.7 µM.
For `O=C(c1ccccc1)N1CCN(c2ccc3c4c(cccc24)C(=O)N(Cc2ccc(Cl)cc2)C3=O)CC1` the same measures were 31 µM, 29.2 µM, 43.6 µM and 39.6 µM.
For `O=C1c2cccc3c(N4CCN(C(=S)SCc5ccccc5)CC4)ccc(c23)C(=O)N1Cc1ccccc1` the same measures were 30 µM, 31.7 µM, 38.9 µM and 40.6 µM.
